US11040994B2, “Cobalt complexes, process for preparation and use thereof” (COUNCIL OF SCIENTIFIC AND INDUSTRIAL RESEARCH, priority 2017, dated 2021)

Assays:
full-length Tau = full-length Tau (Homo sapiens, UniProt P10636); details: for maximum inhibition of full-length Tau aggregation: 0.05 and 0.1 mg/mL complex
Experimental: Tau was induced to aggregate as described previously with certain modifications. In presence heparin (17,500 Da) in the ratio of 4:1, Tau was polymerized in assembly buffer containing 20 mM BES. pH 7.4, 25 mM NaCl, 1 mM DTT, 0.01% NaN3 and protease inhibitor cocktails. The reaction mixture was incubated at 37° C. and the aggregates formation was monitored by ThS fluorescence, SDS-PAGE and TEM at certain time intervals. The Tau protein was allowed to assemble in presence and absence of compounds in increasing concentrations with constant Tau concentrations of 0.91 mg/mL and 0.28 mg/mL for full-length and four repeat Tau respectively. The changes in the conformation of Tau protein was monitored by CD spectroscopy.
(§1) Thioflavin S fluorescence assay: 5 μl of reaction mixture was diluted with 8 μM ThS in 50 mM ammonium acetate, pH 7.4 and added to 384 well plates in triplicates. Subsequently blank was also prepared for subtracting background fluorescence. The plate was incubated in the dark before measuring ThS fluorescence for 20 minutes, at an emission wavelength of 521 nm by exciting it at 440 nm in Tecan Infinite 200 PRO multimode microplate reader.

[1] = biological target: full-length Tau aggregates (Homo sapiens, UniProt P10636); details: highest concentration (range 0.01 mg/mL to 0.1 mg/mL); ThS fluorescence
Chain of full-length Tau aggregates (P10636 1-441 isoform P10636-8): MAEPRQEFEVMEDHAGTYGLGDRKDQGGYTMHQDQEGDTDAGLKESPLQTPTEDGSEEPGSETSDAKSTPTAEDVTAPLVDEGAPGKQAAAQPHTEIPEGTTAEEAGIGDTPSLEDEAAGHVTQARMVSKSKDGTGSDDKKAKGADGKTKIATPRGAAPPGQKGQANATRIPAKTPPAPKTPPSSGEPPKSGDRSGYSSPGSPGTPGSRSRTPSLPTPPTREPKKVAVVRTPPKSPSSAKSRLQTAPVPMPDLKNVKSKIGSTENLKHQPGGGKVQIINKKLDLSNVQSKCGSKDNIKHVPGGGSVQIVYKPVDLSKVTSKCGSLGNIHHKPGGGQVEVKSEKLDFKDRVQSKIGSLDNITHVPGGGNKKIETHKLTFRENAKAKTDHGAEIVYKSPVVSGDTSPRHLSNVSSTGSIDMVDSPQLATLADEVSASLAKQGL
Experimental: (§2) Disaggregation assay: The potency of the metal complexes for disaggregating the preformed Tau aggregates was also analysed. Soluble Tau was dissolved in assembly buffer and was incubated at 37° C. for PHF assembly. The formation of aggregates was analysed by fluorescence assay and SDS-PAGE. Thus formed aggregates were diluted to 0.91 mg/mL final concentration in 20 mM BES buffer, pH 7.4 and this mixture was incubated with increasing concentration of metal complex as discussed earlier.
as §1

Tau PHFs = Tau PHFs (Homo sapiens, UniProt P10636); details: for Tau disaggregation by TEM: 0 hour; for Tau PHF disaggregation by TEM: prolonged incubation
Chain of Tau PHFs (P10636 1-441 isoform P10636-8): as above
Experimental: as §2
Transmission Electron Microscopy (TEM): The degree of aggregates formation in presence of the metal complexes was analysed by TEM (Tecnai T-20). The assay mixture was diluted to 1 μM final concentration and spotted on the carbon coated copper grids. This was further stained by 2% uranyl acetate to observe the morphology of aggregates under TEM.

[2] = heparin as inducer, ThS fluorescence

Chain of full-length Tau (P10636 1-441 isoform P10636-8): as above

Molecule | inhibition rate of full-length Tau aggregation (full-length Tau; highest concentration of 0.1 mg/mL, heparin as inducer, ThS fluorescence) [%] | disaggregation of full-length Tau aggregates [1] [%] | Tau disaggregation by TEM (Tau PHFs) | Tau PHF disaggregation by TEM (Tau PHFs) | maximum inhibition of full-length Tau aggregation (full-length Tau; [2]) | effectiveness in inhibiting aggregation compared between complexes (full-length Tau; lower concentration)
Cobalt(II)(2,6-bis(piperazin-1-ylmethyl)pyridine)chloride [L1] | 97 | 74 | very negligible effect | destructed into shorter filaments | – | –
[Cl][Co][Cl].c1cc(CN2CCOCC2)nc(CN2CCOCC2)c1 [L2, Cobalt(II)(2,6-bis(morpholinomethyl)pyridine)chloride] | – | 72 | very negligible effect | destructed into shorter filaments | about 97% | more effective in comparison with L1 and L3
Cobalt(II)(2,6-bis((4-methylpiperazin-1-yl)methyl)pyridine)chloride [L3] | – | 77 | very negligible effect | destructed into shorter filaments | about 97% | –
